According to the supplement of paper PMC10307832:

Tests used:
Assay in all cases: relative viability (nuclei count vs DMSO), 5 days (fraction); higher = more cells survive
BMX-IN-1 + Decitabine = compound: C=CC(=O)Nc1cc(-n2c(=O)ccc3cnc4ccc(-c5ccc(NS(C)(=O)=O)cc5)cc4c32)ccc1C [BMX-IN-1] + Nc1ncn([C@H]2C[C@H](O)[C@@H](CO)O2)c(=O)n1 [Decitabine] (partner 2 µM)
In short: (§1)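 Medians of duplicate plates are given as relative viability. That measure is the nuclei count in treated wells divided by the count in vehicle wells. Counts were taken on 4× images of lung cancer cell lines in 1536-well plates, 5 days after pin-tool dosing the day after seeding with one drug alone or a fixed anchor-drug dose plus five library-drug doses (not always all listed) in √10 steps.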

BMX-IN-1 + Olaparib = compound: C=CC(=O)Nc1cc(-n2c(=O)ccc3cnc4ccc(-c5ccc(NS(C)(=O)=O)cc5)cc4c32)ccc1C [BMX-IN-1] + O=C(c1cc(Cc2n[nH]c(=O)c3ccccc23)ccc1F)N1CCN(C(=O)C2CC2)CC1 [Olaparib] (partner 8 µM)
In short: as §1

PAC-1 + Palbociclib = compound: C=CCc1cccc(/C=N/NC(=O)CN2CCN(Cc3ccccc3)CC2)c1O [PAC-1] + CC(=O)c1c(C)c2cnc(Nc3ccc(N4CCNCC4)cn3)nc2n(C2CCCC2)c1=O [Palbociclib] (partner 0.5 µM)
In short: as §1

PAC-1 + Navitoclax = compound: C=CCc1cccc(/C=N/NC(=O)CN2CCN(Cc3ccccc3)CC2)c1O [PAC-1] + CC1(C)CCC(c2ccc(Cl)cc2)=C(CN2CCN(c3ccc(C(=O)NS(=O)(=O)c4ccc(N[C@H](CCN5CCOCC5)CSc5ccccc5)c(S(=O)(=O)C(F)(F)F)c4)cc3)CC2)C1 [Navitoclax] (partner 0.5 µM)
In short: as §1

PAC-1 + Alpelisib = compound: C=CCc1cccc(/C=N/NC(=O)CN2CCN(Cc3ccccc3)CC2)c1O [PAC-1] + Cc1nc(NC(=O)N2CCC[C@H]2C(N)=O)sc1-c1ccnc(C(C)(C)C(F)(F)F)c1 [Alpelisib] (partner 2 µM)
In short: as §1

**Q.** How did the relative viability (BMX-IN-1 + Decitabine; first compound 0.02 µM) turn out when SK-MES-1 was run?
**A.** 0.398

**Q.** And the relative viability (BMX-IN-1 + Decitabine; first compound 0.2 µM)?
**A.** 0.432

**Q.** And the relative viability (BMX-IN-1 + Decitabine; first compound 0.6325 µM)?
**A.** 0.425

**Q.** And the relative viability (BMX-IN-1 + Decitabine; first compound 2 µM)?
**A.** 0.637

**Q.** And the relative viability (BMX-IN-1 + Olaparib; first compound 0.02 µM)?
**A.** 0.754

**Q.** What about the relative viability (BMX-IN-1 + Olaparib; first compound 0.2 µM) of the same cell line?
**A.** 0.811

**Q.** And the relative viability (BMX-IN-1 + Olaparib; first compound 0.6325 µM)?
**A.** 0.961

**Q.** And the relative viability (BMX-IN-1 + Olaparib; first compound 2 µM)?
**A.** 0.625

**Q.** And the relative viability (PAC-1 + Palbociclib; first compound 0.02 µM)?
**A.** 0.336

**Q.** And the relative viability (PAC-1 + Palbociclib; first compound 0.06325 µM)?
**A.** 0.311

**Q.** And the relative viability (PAC-1 + Palbociclib; first compound 0.2 µM)?
**A.** 0.315

**Q.** What about the relative viability (PAC-1 + Palbociclib; first compound 2 µM) of the same cell line?
**A.** 0.308

**Q.** What about the relative viability (PAC-1 + Navitoclax; first compound 0.02 µM) of the same cell line?
**A.** 1.09

**Q.** What about the relative viability (PAC-1 + Navitoclax; first compound 0.06325 µM) of the same cell line?
**A.** 1.3

**Q.** What about the relative viability (PAC-1 + Navitoclax; first compound 0.2 µM) of the same cell line?
**A.** 1.19

**Q.** And the relative viability (PAC-1 + Navitoclax; first compound 2 µM)?
**A.** 1.21

**Q.** What about the relative viability (PAC-1 + Alpelisib; first compound 0.02 µM) of the same cell line?
**A.** 0.845

**Q.** What about the relative viability (PAC-1 + Alpelisib; first compound 0.06325 µM) of the same cell line?
**A.** 0.908

**Q.** What about the relative viability (PAC-1 + Alpelisib; first compound 0.2 µM) of the same cell line?
**A.** 0.878

**Q.** What about the relative viability (PAC-1 + Alpelisib; first compound 2 µM) of the same cell line?
**A.** 0.955
